US12275731B2, “Azaindole inhibitors of wild-type and mutant forms of LRRK2” (DANA-FARBER CANCER INSTITUTE, INC., priority 2018, dated 2025)

Key:
Test in all cases: KinomeScan profiling
Type in all cases: binding
YSK4 = target: T1, YSK4 (Homo sapiens, UniProt Q56UN5); conditions: YSK4, 1 μM; read-out: % control
T1 sequence (Q56UN5 1-1328): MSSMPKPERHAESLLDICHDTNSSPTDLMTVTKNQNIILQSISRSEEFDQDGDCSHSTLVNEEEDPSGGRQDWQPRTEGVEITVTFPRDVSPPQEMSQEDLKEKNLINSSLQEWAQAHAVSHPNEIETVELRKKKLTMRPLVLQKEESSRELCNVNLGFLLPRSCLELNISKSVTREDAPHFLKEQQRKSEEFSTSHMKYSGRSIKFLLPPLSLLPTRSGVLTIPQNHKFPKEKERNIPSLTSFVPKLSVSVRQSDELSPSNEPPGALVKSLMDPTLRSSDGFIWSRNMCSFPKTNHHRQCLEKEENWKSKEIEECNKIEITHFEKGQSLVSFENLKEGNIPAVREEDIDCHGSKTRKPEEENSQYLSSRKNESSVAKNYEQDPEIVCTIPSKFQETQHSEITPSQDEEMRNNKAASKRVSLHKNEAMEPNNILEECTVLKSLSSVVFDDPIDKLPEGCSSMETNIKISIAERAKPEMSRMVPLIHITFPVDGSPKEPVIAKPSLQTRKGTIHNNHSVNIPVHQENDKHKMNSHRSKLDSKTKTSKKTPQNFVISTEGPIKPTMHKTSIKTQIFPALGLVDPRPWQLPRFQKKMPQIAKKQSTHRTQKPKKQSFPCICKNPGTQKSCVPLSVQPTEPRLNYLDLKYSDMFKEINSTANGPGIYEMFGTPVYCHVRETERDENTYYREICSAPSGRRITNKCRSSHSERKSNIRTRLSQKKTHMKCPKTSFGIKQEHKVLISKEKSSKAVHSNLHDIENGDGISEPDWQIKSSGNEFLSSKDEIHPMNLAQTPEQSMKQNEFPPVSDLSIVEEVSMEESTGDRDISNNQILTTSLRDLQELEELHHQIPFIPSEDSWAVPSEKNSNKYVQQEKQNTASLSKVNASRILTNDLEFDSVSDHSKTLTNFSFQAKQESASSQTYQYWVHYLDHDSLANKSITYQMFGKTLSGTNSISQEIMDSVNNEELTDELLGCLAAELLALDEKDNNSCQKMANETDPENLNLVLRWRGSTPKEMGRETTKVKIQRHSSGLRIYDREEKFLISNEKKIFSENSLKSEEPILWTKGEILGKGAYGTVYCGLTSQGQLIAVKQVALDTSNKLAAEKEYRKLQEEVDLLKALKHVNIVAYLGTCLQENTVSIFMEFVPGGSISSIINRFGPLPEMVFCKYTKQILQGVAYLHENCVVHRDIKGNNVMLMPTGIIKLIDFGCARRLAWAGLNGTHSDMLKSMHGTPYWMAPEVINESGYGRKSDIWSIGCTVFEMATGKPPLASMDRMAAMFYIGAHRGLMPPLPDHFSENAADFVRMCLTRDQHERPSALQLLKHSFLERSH
Summary of the method: (§1)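 Test agents were profiled at a single concentration of 1 μM (DMSO vehicle) on a near-complete set of 468 kinases. Signal is reported relative to vehicle (100%) and a fully displacing control (0%).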

IRAK1 = target: T2, IRAK1 (Homo sapiens, UniProt P51617); conditions: IRAK1, 1 μM; read-out: % control
T2 construct: purchased KinomeScan®
Summary of the method: as §1

GAK = target: T3, GAK (Homo sapiens, UniProt O14976); conditions: read-out: % control
T3 sequence (O14976 1-1311): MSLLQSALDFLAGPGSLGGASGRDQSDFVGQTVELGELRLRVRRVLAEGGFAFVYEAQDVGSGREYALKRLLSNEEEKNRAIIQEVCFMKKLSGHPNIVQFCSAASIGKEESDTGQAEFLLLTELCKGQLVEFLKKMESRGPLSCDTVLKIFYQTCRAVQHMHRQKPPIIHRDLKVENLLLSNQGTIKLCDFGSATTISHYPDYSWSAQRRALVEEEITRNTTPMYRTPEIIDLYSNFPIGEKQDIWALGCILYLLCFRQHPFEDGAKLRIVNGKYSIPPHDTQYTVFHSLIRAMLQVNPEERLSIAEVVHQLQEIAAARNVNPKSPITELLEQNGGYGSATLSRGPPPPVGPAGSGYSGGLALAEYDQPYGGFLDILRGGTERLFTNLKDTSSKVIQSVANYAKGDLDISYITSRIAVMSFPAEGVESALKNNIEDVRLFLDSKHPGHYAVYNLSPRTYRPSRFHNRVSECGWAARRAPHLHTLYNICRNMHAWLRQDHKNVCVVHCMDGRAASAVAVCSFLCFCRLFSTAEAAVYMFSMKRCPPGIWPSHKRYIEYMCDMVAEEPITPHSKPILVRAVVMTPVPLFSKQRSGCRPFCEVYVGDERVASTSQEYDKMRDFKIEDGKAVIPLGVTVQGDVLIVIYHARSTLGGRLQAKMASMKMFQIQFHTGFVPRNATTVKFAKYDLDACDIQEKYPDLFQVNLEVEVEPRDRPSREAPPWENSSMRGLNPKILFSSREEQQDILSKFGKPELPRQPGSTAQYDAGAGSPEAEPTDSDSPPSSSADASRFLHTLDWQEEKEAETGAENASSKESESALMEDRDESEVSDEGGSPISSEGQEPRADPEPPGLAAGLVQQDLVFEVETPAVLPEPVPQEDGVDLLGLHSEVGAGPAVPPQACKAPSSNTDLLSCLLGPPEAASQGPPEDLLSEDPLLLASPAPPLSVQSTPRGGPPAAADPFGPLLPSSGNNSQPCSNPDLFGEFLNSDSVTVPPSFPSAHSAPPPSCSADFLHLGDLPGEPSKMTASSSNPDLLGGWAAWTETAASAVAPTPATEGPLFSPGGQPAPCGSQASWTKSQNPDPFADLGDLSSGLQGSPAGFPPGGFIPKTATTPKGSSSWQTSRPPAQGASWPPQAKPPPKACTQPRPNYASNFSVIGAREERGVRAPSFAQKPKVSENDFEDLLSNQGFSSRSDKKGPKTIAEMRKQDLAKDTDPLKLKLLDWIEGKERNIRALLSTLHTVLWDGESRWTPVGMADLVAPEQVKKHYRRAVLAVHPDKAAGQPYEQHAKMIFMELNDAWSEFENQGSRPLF
Summary of the method: as §1

T2 sequence (P51617 whole entry): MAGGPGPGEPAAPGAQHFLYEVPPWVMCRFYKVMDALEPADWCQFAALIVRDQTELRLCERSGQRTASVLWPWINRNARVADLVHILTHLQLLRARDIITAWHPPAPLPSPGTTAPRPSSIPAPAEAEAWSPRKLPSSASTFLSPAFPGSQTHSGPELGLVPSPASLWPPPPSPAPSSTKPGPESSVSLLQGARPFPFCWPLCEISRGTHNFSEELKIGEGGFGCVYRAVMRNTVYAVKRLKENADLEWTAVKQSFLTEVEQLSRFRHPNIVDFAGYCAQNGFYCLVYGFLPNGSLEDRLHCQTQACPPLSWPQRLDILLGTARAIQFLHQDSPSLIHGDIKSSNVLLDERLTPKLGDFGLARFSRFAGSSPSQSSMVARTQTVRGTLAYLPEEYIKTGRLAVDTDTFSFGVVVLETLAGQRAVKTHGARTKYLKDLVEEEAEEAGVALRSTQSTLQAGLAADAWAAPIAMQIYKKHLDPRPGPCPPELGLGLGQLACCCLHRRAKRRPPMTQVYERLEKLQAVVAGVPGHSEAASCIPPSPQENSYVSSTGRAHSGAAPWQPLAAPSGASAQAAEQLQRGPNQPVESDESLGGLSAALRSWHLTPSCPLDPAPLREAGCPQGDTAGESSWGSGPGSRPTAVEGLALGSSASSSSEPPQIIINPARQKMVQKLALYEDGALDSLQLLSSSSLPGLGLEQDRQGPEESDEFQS

Row | Structure (SMILES) | remaining binding at 1 µM (YSK4) | remaining binding at 1 µM (IRAK1) | remaining binding at 1 µM (GAK)
1 | CNc1c(-c2cnn([C@H]3CCN(C(C)=O)C[C@@H]3F)c2)cnc2[nH]cc(Cl)c12 [Compound 77, 1-((3S,4S)-4-(4-(3-chloro-4-(methylamino)-1H-pyrrolo[2,3-b]pyridin-5-yl)-1H-pyrazol-1-yl)-3-fluoropiperidin-1-yl)ethan-1-one] | 2.6% | 33% | 100%
2 | CNc1c(-c2ccc(C(=O)N3CCC(N4CCOCC4)CC3)cc2)cnc2[nH]cc(Cl)c12 [Compound 96, (4-(3-chloro-4-(methylamino)-1H-pyrrolo[2,3-b]pyridin-5-yl)phenyl)(4-morpholinopiperidin-1-yl)methanone] | 2.2% | 41% | 99%
3 | O=C(c1ccc(-c2cnc3[nH]cc(Cl)c3c2NC2CCCC2)cc1)N1CCC(N2CCOCC2)CC1 [Compound 101, (4-(3-chloro-4-(cyclopentylamino)-1H-pyrrolo[2,3-b]pyridin-5-yl)phenyl)(4-morpholinopiperidin-1-yl)methanone] | 63% | 100% | 99%
